Tests used:
MMP-1 = molecular target: T1, MMP-1 (Homo sapiens, UniProt P03956); experiment: In vitro MMP inhibition, IC50 determination (fluorogenic substrate I); assay type: biochemical; settings: value in parentheses; read-out: MMP-1 (IC-50)
T1 construct: made in house; host or cells: MMP-1-transfected HT-1080 cells (spent media)
T1 sequence (P03956 100-469): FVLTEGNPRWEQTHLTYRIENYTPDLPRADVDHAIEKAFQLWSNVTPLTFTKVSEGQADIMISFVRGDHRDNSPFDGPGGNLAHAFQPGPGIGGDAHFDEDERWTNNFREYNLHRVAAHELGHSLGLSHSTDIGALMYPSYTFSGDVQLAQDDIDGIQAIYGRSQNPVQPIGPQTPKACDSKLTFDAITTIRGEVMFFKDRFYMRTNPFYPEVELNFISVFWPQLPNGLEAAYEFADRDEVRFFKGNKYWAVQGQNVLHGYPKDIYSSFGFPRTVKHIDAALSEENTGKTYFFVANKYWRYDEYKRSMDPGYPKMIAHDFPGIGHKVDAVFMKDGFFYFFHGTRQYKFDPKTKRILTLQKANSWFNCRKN
Procedure: Several hydroxamic acids and salts thereof were analyzed in in vitro assays to determine their ability to inhibit the MMP cleavage of peptide substrates. […] and IC50 constants were calculated from the assayed hydroxamic acid-MMP interactions. Human recombinant MMP-1, MMP-2, MMP-9, MMP-13, and MMP-14 were used in this assay. All enzymes were prepared in Assignee's laboratories following usual laboratory procedures. Protocols for the preparation and use of these enzymes are available in the scientific literature. See, e.g., Enzyme Nomenclature (Academic Press, San Diego, Calif., 1992) (and the citations therein). See also, Freije et al., “Molecular cloning and expression of collagenase-3, a novel human matrix metalloproteinase produced by breast carcinomas,” J Biol. Chem., 269(24), 16766-16773 (1994). The MMP-1 proenzyme was purified from the spent media of MMP-1-transfected HT-1080 cells provided by Dr. Harold Welgus of Washington University (St. Louis, Mo.). The protein was purified on a zinc chelating column. All MMPs were activated using 4-aminophenylmercuric acetate (“APMA”, Sigma Chemical, St. Louis, Mo.) or trypsin. MMP-9 also was activated using human recombinant MMP-3 (purified in Assignee's laboratory following standard cloning and purification techniques). […] Substrate (I) was purchased from Baychem (Redwood City, Calif.), and substrate II was prepared Assignee's laboratory. Substrate I was used in the IC50 determination assays, while substrate II was used in the Ki determination assays. In the absence of MMP inhibitory activity, either substrate is cleaved at the Gly-Leu peptide bond. […] The stock solutions of the assayed hydroxamic acids (or salts thereof) were prepared in 1% dimethyl sulfoxide (DMSO). […] The experiment controls contained the same amount of Buffer A/DMSO as the assayed sample, but contained no hydroxamic acid (or salt thereof). The assays from which the IC50 determinations were made were performed as follows. […] Louis, Mo.). The assayed hydroxamic acid samples were incubated in MicrofluorTM White Plates (Dynatech, Chantilly, Va.) and analyzed on a Perkin Elmer […] plate reader (Norwalk, Conn.). The excitation wavelength was 328 nm, and the emission wavelength-415 nm. […] As stated in the previous paragraph, samples containing varying concentrations of the same assayed hydroxamic acid were prepared. Inhibition was measured as a reduction in fluorescent intensity as a function of MMP inhibitor concentration. […] All values in Table 2 are given in nM units. The IC50 measurements are in parenthesis.

MMP-9 = molecular target: T2, MMP-9 (Homo sapiens, UniProt P14780); experiment: as above; assay type: biochemical; settings: value in parentheses; read-out: MMP-9 (IC-50)
T2 construct: made in house; host or cells: MMP-9-transfected HT1080 cells (spent media)
T2 sequence (P14780 107-707 limits assumed): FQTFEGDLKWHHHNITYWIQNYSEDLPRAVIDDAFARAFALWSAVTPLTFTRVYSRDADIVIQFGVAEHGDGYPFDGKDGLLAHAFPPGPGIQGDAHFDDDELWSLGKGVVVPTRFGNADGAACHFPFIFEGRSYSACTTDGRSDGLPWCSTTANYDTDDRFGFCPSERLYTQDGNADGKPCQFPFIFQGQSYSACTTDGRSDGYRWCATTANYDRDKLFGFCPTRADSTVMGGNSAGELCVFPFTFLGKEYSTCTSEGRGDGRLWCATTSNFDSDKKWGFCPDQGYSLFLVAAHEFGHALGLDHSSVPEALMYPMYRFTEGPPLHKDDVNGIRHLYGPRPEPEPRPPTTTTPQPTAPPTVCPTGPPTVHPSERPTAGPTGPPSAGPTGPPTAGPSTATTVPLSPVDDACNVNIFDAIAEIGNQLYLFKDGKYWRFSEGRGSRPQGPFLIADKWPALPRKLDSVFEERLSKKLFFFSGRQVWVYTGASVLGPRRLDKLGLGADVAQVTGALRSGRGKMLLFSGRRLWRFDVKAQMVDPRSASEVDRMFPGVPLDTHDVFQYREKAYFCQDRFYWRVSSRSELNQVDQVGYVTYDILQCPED
Procedure: Several hydroxamic acids and salts thereof were analyzed in in vitro assays to determine their ability to inhibit the MMP cleavage of peptide substrates. […] and IC50 constants were calculated from the assayed hydroxamic acid-MMP interactions. Human recombinant MMP-1, MMP-2, MMP-9, MMP-13, and MMP-14 were used in this assay. All enzymes were prepared in Assignee's laboratories following usual laboratory procedures. Protocols for the preparation and use of these enzymes are available in the scientific literature. See, e.g., Enzyme Nomenclature (Academic Press, San Diego, Calif., 1992) (and the citations therein). See also, Freije et al., “Molecular cloning and expression of collagenase-3, a novel human matrix metalloproteinase produced by breast carcinomas,” J Biol. Chem., 269(24), 16766-16773 (1994). The MMP-9 proenzyme was purified by gelatin Sepharose chromatography from spent media of MMP-9-transfected HT1080 cells provided by Dr. Howard Welgus of Washington University (St. Louis, Mo.). All MMPs were activated using 4-aminophenylmercuric acetate (“APMA”, Sigma Chemical, St. Louis, Mo.) or trypsin. MMP-9 also was activated using human recombinant MMP-3 (purified in Assignee's laboratory following standard cloning and purification techniques). […] Substrate (I) was purchased from Baychem (Redwood City, Calif.), and substrate II was prepared Assignee's laboratory. Substrate I was used in the IC50 determination assays, while substrate II was used in the Ki determination assays. In the absence of MMP inhibitory activity, either substrate is cleaved at the Gly-Leu peptide bond. […] The stock solutions of the assayed hydroxamic acids (or salts thereof) were prepared in 1% dimethyl sulfoxide (DMSO). […] The experiment controls contained the same amount of Buffer A/DMSO as the assayed sample, but contained no hydroxamic acid (or salt thereof). The assays from which the IC50 determinations were made were performed as follows. […] Louis, Mo.). The assayed hydroxamic acid samples were incubated in MicrofluorTM White Plates (Dynatech, Chantilly, Va.) and analyzed on a Perkin Elmer […] plate reader (Norwalk, Conn.). The excitation wavelength was 328 nm, and the emission wavelength-415 nm. […] As stated in the previous paragraph, samples containing varying concentrations of the same assayed hydroxamic acid were prepared. Inhibition was measured as a reduction in fluorescent intensity as a function of MMP inhibitor concentration. […] All values in Table 2 are given in nM units. The IC50 measurements are in parenthesis.

Row | Structure (SMILES) | IC50 (MMP-1) [nM] | IC50 (MMP-9) [nM]
1 | CCCCOc1ccc(N2CCN(S(=O)(=O)C3(C(=O)NO)CCN(c4ccc(C)cc4)CC3)CC2)cc1 [Example 295] | > 10000 | 0.1
2 | CCCCOc1ccc(N2CCN(S(=O)(=O)C3(C(=O)NO)CCN(c4ccc(C)cc4)CC3)CC2)cc1F [Example 296] | > 10000 | 116
3 | COCCOc1ccc(N2CCN(S(=O)(=O)C3(C(=O)NO)CCN(C4CC4)CC3)CC2)cc1F [Example 297] | > 10000 | 31.1
4 | CCCCOc1ccc(N2CCN(S(=O)(=O)C3(C(=O)NO)CCN(CC4CC4)CC3)CC2)cc1 [Example 298] | > 10000 | 3
5 | CCCCOc1ccc(N2CCN(S(=O)(=O)C3(C(=O)NO)CCN(C4CC4)CC3)CC2)cc1 [Example 301] | > 10000 | 0.6
6 | C#CCN1CCC(C(=O)NO)(S(=O)(=O)N2CCN(c3ccc(OCCCC)cc3)CC2)CC1 [Example 303] | > 10000 | 0.3
